The values below come from patent publication US20030206968A1, “Fungicidal mixtures” (priority 1999, published 2003).

Common to all, as to type: in vivo
One experiment deals with Septoria tritici. The experiment can be described thus: Field test, Septoria tritici on wheat. As to the method: (§1) The trials are carried out under greenhouse (Examples 1 to 32) or field conditions (Examples 33 to 40) in residual or curative applications. The fungicides are applied in single treatments, or in a combination comprising an azolopyrimidine of formula I and a compound selected from the classes (A), (B) and (C) as defined above. The compounds are applied in form of an aqueous spray mix obtained from a concentrated formulation or the technical material.
For the field study formulated Azolopyrimidine A, B or C and formulated compounds from the classes (A), (B) and (C) were used.
(§2) Assessments of the diseases took place at the indicated day after the application of the compounds. Per cent infected leaf area infected was evaluated. The efficacy of the compounds/compounds mixtures to control the diseases was calculated by using the formula given above under item 4: […]
(§3) Synergy was calculated using the % disease control values of specific treatments for the two COLBY formula given hereinabove
The compounds are applied according to good agricultural practice in the form of an aqueous spray mix obtained from a concentrated formulation or the technical material at a rate of 400 l/ha. The disease control is evaluated according to the formula given for the greenhouse tests.
Fungicidal efficacy of the mixture of Azolopyrimidine C+metconazole in the field against Septoria tritici on wheat The tank mix was obtained from an EC formulation containing 150 g Azolopyrimidine C per liter and a SL formulation containing 60 g metconazole per liter. The observed and expected efficacies with different rates are given in Table XXXIVa (19 days after application) and Table XXXIVb (25 days after application):
Fungicidal efficacy of the mixture of (S)-Azolopyrimidine C+kresoxim methyl in the field against Septoria tritici on wheat The tank mix was obtained from a SC formulation containing 100 g (S)-Azolopyrimidine C per liter and a WG formulation containing 500 g kresoxim methyl per kg. The observed and expected efficacies with different rates are given in Tables XXXVa (7 days after application), XXXVb (22 days after application), XXXVc (34 days after application), and XXXVd (41 days after application):
Fungicidal efficacy of the mixture of Azolopyrimidine A and different cereal fungicides the field against Septoria tritici on wheat 15 days after application The tank mix was obtained from an SC formulation containing 100 g Azolopyrimidine A per liter and commercially available formulations of metconazole, epoxiconazole or propiconazole, respectively.

A further experiment concerns Blumeria graminis. Kind of experiment: Greenhouse, Blumeria graminis on barley, 2 days curative. As to the method: as §1
(§4) 1. Seed is planted in 6 cm diameter plastic pots and maintained in the greenhouse.
(§5) 2. When the primary leaf is fully expanded in the case of cereals or several leaves are present in the case of dicots, formulated test compounds are sprayed with a three nozzle overhead fungicide sprayer to near run-off. Alternatively, a single nozzle overhead track sprayer is used for application of the compounds to cereals at a rate of 200 l/ha. Plants are then allowed to air-dry.
(§6) 3. Inoculation precedes treatment in the case of curative evaluations and follows treatment in case of residual evaluations. For inoculation of powdery mildew disease, plants are set up on greenhouse benches with bottom watering mats and inoculated by dusting them with conidia from infected plants. Between inoculation and treatment for curative evaluations and between treatment and inoculation for residual evaluations, plants are maintained in the greenhouse with bottom watering.
(§7) 4. Disease on the foliage as percent leaf area with disease symptoms/signs is evaluated about 7 days after inoculation. In the case of wheat, the tips and bases of the leaves are excluded from the evaluation. [formula]
(§8) 1. Technical compounds are formulated in a solvent/surfactant system consisting of 5% acetone and 0.05% Tween 20 in deionized water. Compounds are dissolved in acetone prior to addition of the water; the Tween 20 can be added through either the acetone or the water. Dilutions are made using the solvent/surfactant system. Formulated compounds are prepared using deionized water.
(§9) 2. Two kinds of controls are included: Plants treated with the solvent/surfactant solution and inoculated (Solvent Blank). Untreated plants which are inoculated (Inoculated Control).
as §2, §3
Fungicidal efficacy of the mixture of (S)-Azolopyrimidine C in admixture with Fenhexamid (2 days curative) against Blumeria graminis on barley. The tank mixes were obtained from technical material of (S)-Azolopyrimidine C and Fenhexamid.
Fungicidal efficacy of the mixture of (S)-Azolopyrimidine C in admixture with Azoxystrobin or Trifloxystrobin (2 days curative) against Blumeria graminis on barley. The tank mixes were obtained from technical material of (S)-Azolopyrimidine C and Azoxystrobin or Trifloxystrobin.

The next experiment has as its system Puccinia recondita. The experiment can be described thus: Greenhouse, Puccinia recondita on wheat, 1 day curative, plants sprayed twice, once with each compound. The following applies: Example 12. As to the method: as §1, §4, §5, §6
For inoculation of non-powdery mildew diseases, an aqueous spore suspension of the pathogen is applied to the plant and the plants are kept 1-2 days in a moist infection chamber before being returned to the greenhouse where they are maintained by bottom watering.
as §7, §8, §9, §2, §3
Fungicidal efficacy of the mixture of Azolopyrimidine C+kresoxim methyl (1 day curative) against Puccinia recondita on wheat Plants sprayed twice, once with each compound. The tank mixes were obtained from a SC formulation containing 100 g Azolopyrimidine C per liter and a WG containing 500 g kresoxim methyl per kg.

For a further experiment, the system named is Erysiphe cichoracearum. The experiment can be described thus: Greenhouse, Erysiphe cichoracearum on cucumbers, 1 day residual. As to the method:
as §1, §4, §5, §6, §7, §8, §9, §2, §3
Fungicidal efficacy of the mixture of Azolopyrimidine C+triforine (1 day residual) against Erysiphe cichoracearum on cucumbers
the tank mix was obtained from a SC formulation containing 100 g of Azolopyrimidine C per liter and an DC formulation containing and 190 g of triforine per liter.
Fungicidal efficacy of the mixture of Azolopyrimidine C+cyprodinil (1 day residual) against Erysiphe cichoracearum on cucumbers The tank mix was obtained from a SC formulation containing 100 g of Azolopyrimidine C per liter and a WG formulation containing and 750 g of cyprodinil per kg.

Turning to “5-chloro-6-(2,4,6-trifluorophenyl)-7-(1,1,1-trifluoroprop-2-ylamino)-[1,2,4]triazolo[1,5-a]pyrimidine [(S)-Azolopyrimidine C]”, the “Observed Efficacy” value in the experiment with Septoria tritici ((S)-Azolopyrimidine C 75 g/ha alone, 41 days after application, field, wheat) was 92; in the experiment with Septoria tritici (Example 35, 7 days after application, dose rate 25 g/ha), 34%; in the experiment with Septoria tritici (Example 35, 22 days after application, dose rate 25 g/ha), 74%; in the experiment with Septoria tritici (Example 35, 22 days after application, dose rate 100 g/ha), 87%; in the experiment on Septoria tritici (Example 35, 34 days after application, dose rate 50 g/ha), 53%; with Septoria tritici (Example 35, 34 days after application, dose rate 100 g/ha) it was 70%. Besides, the “Observed Efficacy” value in the experiment with Blumeria graminis (Example 26, dose rate 0.74 ppm) is reported as 0%; in the experiment on Blumeria graminis (Example 26, dose rate 2.2 ppm), 8%; in the experiment on Blumeria graminis (Example 26, dose rate 6.7 ppm), 29%; with Blumeria graminis (Example 26, dose rate 20 ppm) it was 37%; in the experiment on Blumeria graminis (Example 26, dose rate 60 ppm), 60%; with Blumeria graminis (Example 26, dose rate 180 ppm) it was 86%. In addition, the “Observed Efficacy” value in the experiment on Blumeria graminis (Example 29, dose rate 1.6 ppm) was 0%; in the experiment with Blumeria graminis (Example 29, dose rate 3.1 ppm) it was 1%; in the experiment on Blumeria graminis (Example 29, dose rate 6.3 ppm) it was 15%; in the experiment with Blumeria graminis (Example 29, dose rate 12.5 ppm) it was 31%; in the experiment with Blumeria graminis (Example 29, dose rate 25 ppm), 54%; with Blumeria graminis (Example 29, dose rate 50 ppm), 73%. The “Observed Efficacy” value with Puccinia recondita (dose rate 25 g/ha) worked out at 25%; in the experiment with Puccinia recondita (dose rate 50 g/ha) it was 66%; in the experiment on Puccinia recondita (dose rate 100 g/ha), 79%; in the experiment on Puccinia recondita (dose rate 200 g/ha) it was 97%; in the experiment with Puccinia recondita (dose rate 400 g/ha) it was 99%.
Turning to `CC(Nc1c(-c2c(F)cc(F)cc2F)c(Cl)nc2ncnn12)C(F)(F)F` (stereo not drawn) [Azolopyrimidine C, 5-chloro-6-(2,4,6-trifluorophenyl)-7-(1,1,1-trifluoroprop-2-ylamino)-[1,2,4]triazolo[1,5-a]pyrimidine], the “Observed Efficacy” value turned out to be 48% in the experiment on Septoria tritici (Example 34, 19 days after application, dose rate 25 g/ha); 61% in the experiment on Septoria tritici (Example 34, 25 days after application, dose rate 50 g/ha); 13% in the experiment on Septoria tritici (Example 34, 25 days after application, dose rate 75 g/ha); 0% in the experiment with Erysiphe cichoracearum (Example 23, dose rate 1 ppm); 7% with Erysiphe cichoracearum (Example 23, dose rate 4 ppm); 0% in the experiment on Erysiphe cichoracearum (Example 24, dose rate 1 ppm). Further, the “Observed Efficacy” value in the experiment on Erysiphe cichoracearum (Example 24, dose rate 4 ppm) is 7%.
